The source of these data is ChEMBL document CHEMBL1135053, “Affinity-driven selection of tripeptide inhibitors of ribonucleotide reductase” (Bioorg Med Chem Lett, 2002).

The assay in a line: Mouse ribonucleotide reductase (mRR) activity was determined by relative dissociation constant which was assayed for binding activity to mR1.

Residues, ends and D or L forms follow the SMILES beside them. *: point of attachment. Fmoc = O=C(OCC1c2ccccc2-c2ccccc21)*

In turn, `O=C(N[C@H](C(=O)O)c1ccccc1)OCC1c2ccccc2-c2ccccc21` registered a Relative Kd of 31.
`CC(=O)N[C@@H](Cc1ccccc1)C(=O)N[C@H](C(=O)N[C@@H](CC(C)C)C(=O)N[C@@H](CC(=O)O)C(=O)N[C@@H](C)C(=O)N[C@@H](CC(=O)O)C(=O)N[C@@H](Cc1ccccc1)C(=O)O)[C@@H](C)O` (Ac-FTLDADF-OH) came in with a Relative Kd of 1.
As to `O=C(N[C@@H](Cc1c[nH]c2ccccc12)C(=O)O)OCC1c2ccccc2-c2ccccc21`, the Relative Kd was 18.
The same measure for `O=C(N[C@@H](Cc1c[nH]c2ccccc12)C(=O)N[C@@H](Cc1ccccc1)C(=O)N[C@@H](Cc1ccccc1)C(=O)O)OCC1c2ccccc2-c2ccccc21` (Fmoc-Trp-Phe-Phe-OH): 1; for `O=C(N[C@@H](Cc1ccccc1)C(=O)O)OCC1c2ccccc2-c2ccccc21`: 22.
Next, `CC(C)C[C@H](NC(=O)OCC1c2ccccc2-c2ccccc21)C(=O)O`: 38.
